Measurements taken from patent publication US4260745A, “3-Halo cephalosporins” (Eli Lilly and Company, priority 1979, dated 1981).
Counter-ions that a name gives are not always drawn. Like-named read-outs stand apart in the source and are kept apart here.

Test: Electrometric titration
Format: physicochemical
[1] = 66% aqueous dmf, only or first pKa, read-out: pKa

Row | pKa [1] | pKa (60% aqueous dmf, 60% aq. DMF, first group, read-out: titratable groups) | pKa (60% aqueous dmf, 60% aq. DMF, second group, read-out: titratable groups) | SMILES
1 | 5.6 | – | – | COC(=O)C1=C(O)CS[C@@H]2C(NC(=O)COc3ccccc3)C(=O)N12 (some centres unmarked) [Example 9, Methyl 7-phenoxyacetamido-3-hydroxy-3-cephem-4-carboxylate]
2 | 5.9 | – | – | O=C(Cc1cccs1)NC1C(=O)N2C(C(=O)OCc3ccc([N+](=O)[O-])cc3)=C(O)CS[C@H]12 (some centres unmarked) [Example 12, p-Nitrobenzyl 7-[2-(2-thienyl)acetamido]-3-hydroxy-3-cephem-4-carboxylate]
3 | 5.9 | – | – | CC(=O)NC1C(=O)N2C(C(=O)OCc3ccc([N+](=O)[O-])cc3)=C(O)CS[C@H]12 (some centres unmarked) [Example 13, p-Nitrobenzyl 7-acetamido-3-hydroxy-3-cephem-4-carboxylate]
4 | – | 4.5 | 6.5 | NC1C(=O)N2C(C(=O)OC(c3ccccc3)c3ccccc3)=C(O)CS[C@H]12 (some centres unmarked) [diphenylmethyl 7-amino-3-hydroxy-3-cephem-4-carboxylate hydrochloride]
